# From ChEMBL document CHEMBL1921769, “Synthesis and docking study of 2-phenylaminopyrimidine Abl tyrosine kinase inhibitors” (Bioorg Med Chem Lett, 2011)
# Biological target: Tyrosine-protein kinase ABL1 (Homo sapiens, UniProt P00519)
# Experiment: Inhibition of Abl using DAIpYAAPFAKKK phosphopeptide as substrate by MALDI-MS analysis
# Sequence of Tyrosine-protein kinase ABL1 (P00519 whole entry): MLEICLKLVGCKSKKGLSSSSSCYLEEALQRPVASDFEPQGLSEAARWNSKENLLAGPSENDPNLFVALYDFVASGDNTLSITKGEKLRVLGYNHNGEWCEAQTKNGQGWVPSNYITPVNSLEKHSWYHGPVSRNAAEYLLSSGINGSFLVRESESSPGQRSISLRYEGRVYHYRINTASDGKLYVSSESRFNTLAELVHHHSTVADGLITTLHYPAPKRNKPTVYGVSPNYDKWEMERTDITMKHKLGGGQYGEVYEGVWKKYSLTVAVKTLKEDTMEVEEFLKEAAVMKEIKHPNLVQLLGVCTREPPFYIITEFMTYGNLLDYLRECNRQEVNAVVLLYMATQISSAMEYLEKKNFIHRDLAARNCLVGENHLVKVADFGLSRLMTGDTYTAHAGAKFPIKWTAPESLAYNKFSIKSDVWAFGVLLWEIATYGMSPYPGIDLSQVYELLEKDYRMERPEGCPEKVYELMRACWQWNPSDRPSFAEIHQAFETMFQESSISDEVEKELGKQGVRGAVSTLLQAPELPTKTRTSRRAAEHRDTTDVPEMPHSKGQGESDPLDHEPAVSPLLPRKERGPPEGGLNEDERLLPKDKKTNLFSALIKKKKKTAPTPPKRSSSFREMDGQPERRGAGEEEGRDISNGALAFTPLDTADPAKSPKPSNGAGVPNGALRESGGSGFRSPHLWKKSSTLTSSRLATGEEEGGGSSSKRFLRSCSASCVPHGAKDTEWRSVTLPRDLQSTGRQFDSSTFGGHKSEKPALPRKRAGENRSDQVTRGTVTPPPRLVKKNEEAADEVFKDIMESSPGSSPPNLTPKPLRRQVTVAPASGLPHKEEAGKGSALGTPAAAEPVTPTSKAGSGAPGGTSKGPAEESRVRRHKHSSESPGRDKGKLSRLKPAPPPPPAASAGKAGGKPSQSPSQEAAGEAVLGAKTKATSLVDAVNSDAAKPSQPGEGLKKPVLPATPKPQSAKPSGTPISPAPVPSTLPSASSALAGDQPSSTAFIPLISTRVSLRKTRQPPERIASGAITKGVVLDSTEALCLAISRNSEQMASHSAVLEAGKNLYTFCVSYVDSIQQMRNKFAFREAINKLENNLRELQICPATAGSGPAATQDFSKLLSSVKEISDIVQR
row,IC50 [µM],SMILES
1,1.1,CSc1cccc(C(=O)Nc2ccc(C)c(Nc3nccc(-c4cccnc4)n3)c2)c1
2,> 25,Cc1ccc(NC(=O)c2ccc(N)c(N)c2)cc1Nc1nccc(-c2cccnc2)n1
3,12.7,Cc1ccc(NC(=O)c2ccccc2)cc1Nc1nccc(-c2cccnc2)n1
